Results taken from patent US20230085307A1, “PYRIDAZINONE COMPOUND AND HERBICIDE” (NISSAN CHEMICAL CORPORATION, priority 2019, published 2023).

Columns and labels:
persian speedwell [1] = assay: Test Example 5: herbicidal effect by foliage application, plastic box (Table 20, symbol R); assay type: in vivo, Persian speedwell (Veronica persica); settings: foliage application, 320 g/ha, evaluated three weeks after application
Method in brief: (§1)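 Sow seeds spot-wise in sterilized diluvial soil; cover with ~1.5 cm soil. Grow 14 days in greenhouse, 25° C. to 30° C. Spray foliage with emulsion diluted to predetermined amount. Rate effect after 3 weeks.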

wild oat [2] = assay: Test Example 4: herbicidal effect by soil treatment (Table 19, symbol I); assay type: in vivo, wild oat (Avena fatua); settings: amount of applied herbicide 320 g/ha
Method in brief: (§2)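 Applied as a water-diluted emulsion, the compound was sprayed onto soil covering newly sown seeds. Evaluation came three weeks after application, in a greenhouse held at 25° C. to 30° C.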

late watergrass = assay: Test Example 1: herbicidal activity, application before weed generation under submerged conditions (Table 16, symbol A); assay type: in vivo, late watergrass (Echinochloa oryzicola); settings: 320 g/ha applied herbicide
Method in brief: (§3)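 Emulsion formulation, water-diluted to set dose, was put onto the flooded surface (4 cm depth, alluvial soil) the same day weeds were sown and 2.5-leaf rice transplanted. After 3 weeks at 25-30 °C under glass, each species was rated 0 (≤5% kill) to 5 (≥90% kill).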

persian speedwell [3] = assay: Test Example 4: herbicidal effect by soil treatment (Table 19, symbol R); assay type: in vivo, Persian speedwell (Veronica persica); settings: amount of applied herbicide 320 g/ha
Method in brief: as §2

Italian ryegrass [4] = assay: Test Example 5: herbicidal effect by foliage application, plastic box (Table 20, symbol K); assay type: in vivo, Italian ryegrass (Lolium multiflorum); settings: foliage application, 320 g/ha, evaluated three weeks after application
Method in brief: as §1

wild oat [5] = assay: Test Example 5: herbicidal effect by foliage application, plastic box (Table 20, symbol I); assay type: in vivo, wild oat (Avena fatua); settings: foliage application, 320 g/ha, evaluated three weeks after application
Method in brief: as §1

blackgrass [6] = assay: Test Example 5: herbicidal effect by foliage application, plastic box (Table 20, symbol J); assay type: in vivo, blackgrass (Alopecurus myosuroides); settings: foliage application, 320 g/ha, evaluated three weeks after application
Method in brief: as §1

chickweed [7] = assay: Test Example 4: herbicidal effect by soil treatment (Table 19, symbol P); assay type: in vivo, common chickweed (Stellaria media); settings: amount of applied herbicide 320 g/ha
Method in brief: as §2

green foxtail [8] = assay: Test Example 5: herbicidal effect by foliage application, plastic box (Table 20, symbol G); assay type: in vivo, green foxtail (Setaria viridis); settings: foliage application, 320 g/ha, evaluated three weeks after application
Method in brief: as §1

windgrass [9] = assay: Test Example 5: herbicidal effect by foliage application, plastic box (Table 20, symbol L); assay type: in vivo, windgrass (Apera spica-venti); settings: foliage application, 320 g/ha, evaluated three weeks after application
Method in brief: as §1

Japanese bulrush = assay: Test Example 1: herbicidal activity, application before weed generation under submerged conditions (Table 16, symbol B); assay type: in vivo, Japanese bulrush (Schoenoplectus juncoides); settings: 320 g/ha applied herbicide
Method in brief: as §3

velvetleaf [10] = assay: Test Example 4: herbicidal effect by soil treatment (Table 19, symbol M); assay type: in vivo, velvetleaf (Abutilon theophrasti); settings: amount of applied herbicide 320 g/ha
Method in brief: as §2

southern crabgrass [11] = assay: Test Example 4: herbicidal effect by soil treatment (Table 19, symbol F); assay type: in vivo, southern crabgrass (Digitaria ciliaris); settings: amount of applied herbicide 320 g/ha
Method in brief: as §2

velvetleaf [12] = assay: Test Example 5: herbicidal effect by foliage application, plastic box (Table 20, symbol M); assay type: in vivo, velvetleaf (Abutilon theophrasti); settings: foliage application, 320 g/ha, evaluated three weeks after application
Method in brief: as §1

redroot pigweed [13] = assay: Test Example 5: herbicidal effect by foliage application, plastic box (Table 20, symbol N); assay type: in vivo, redroot pigweed (Amaranthus retroflexus); settings: foliage application, 320 g/ha, evaluated three weeks after application
Method in brief: as §1

barnyard grass [14] = assay: Test Example 4: herbicidal effect by soil treatment (Table 19, symbol H); assay type: in vivo, barnyard grass (Echinochloa crus-galli); settings: amount of applied herbicide 320 g/ha
Method in brief: as §2

Chinese sprangletop = assay: Test Example 3: herbicidal effect by foliage application, Wagner pot (Table 18, symbol D); assay type: in vivo, chinese sprangletop (Leptochloa chinensis); settings: amount of applied herbicide 320 g/ha
Method in brief: (§4)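 Plants were sown in alluvial soil held under 0.1–0.5 cm standing water and grown 14 days in a greenhouse at 25–30 °C. An emulsifiable formulation, water-diluted to the set dose, was then sprayed onto the foliage, and effects were scored three weeks later using previously defined criteria.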

windgrass [15] = assay: Test Example 4: herbicidal effect by soil treatment (Table 19, symbol L); assay type: in vivo, windgrass (Apera spica-venti); settings: amount of applied herbicide 320 g/ha
Method in brief: as §2

false cleavers = assay: Test Example 4: herbicidal effect by soil treatment (Table 19, symbol Q); assay type: in vivo, false cleavers (Galium spurium); settings: amount of applied herbicide 320 g/ha
Method in brief: as §2

green foxtail [16] = assay: Test Example 4: herbicidal effect by soil treatment (Table 19, symbol G); assay type: in vivo, green foxtail (Setaria viridis); settings: amount of applied herbicide 320 g/ha
Method in brief: as §2

redroot pigweed [17] = assay: Test Example 4: herbicidal effect by soil treatment (Table 19, symbol N); assay type: in vivo, redroot pigweed (Amaranthus retroflexus); settings: amount of applied herbicide 320 g/ha
Method in brief: as §2

lambsquarters [18] = assay: Test Example 4: herbicidal effect by soil treatment (Table 19, symbol O); assay type: in vivo, lambsquarters (Chenopodium album); settings: amount of applied herbicide 320 g/ha
Method in brief: as §2

oval-leafed pondweed = assay: Test Example 1: herbicidal activity, application before weed generation under submerged conditions (Table 16, symbol C); assay type: in vivo, oval-leafed pondweed (Monochoria vaginalis); settings: 320 g/ha applied herbicide
Method in brief: as §3

lambsquarters [19] = assay: Test Example 5: herbicidal effect by foliage application, plastic box (Table 20, symbol O); assay type: in vivo, lambsquarters (Chenopodium album); settings: foliage application, 320 g/ha, evaluated three weeks after application
Method in brief: as §1

barnyard grass [20] = assay: Test Example 5: herbicidal effect by foliage application, plastic box (Table 20, symbol H); assay type: in vivo, barnyard grass (Echinochloa crus-galli); settings: foliage application, 320 g/ha, evaluated three weeks after application
Method in brief: as §1

Italian ryegrass [21] = assay: Test Example 4: herbicidal effect by soil treatment (Table 19, symbol K); assay type: in vivo, Italian ryegrass (Lolium multiflorum); settings: amount of applied herbicide 320 g/ha
Method in brief: as §2

southern crabgrass [22] = assay: Test Example 5: herbicidal effect by foliage application, plastic box (Table 20, symbol F); assay type: in vivo, southern crabgrass (Digitaria ciliaris); settings: foliage application, 320 g/ha, evaluated three weeks after application
Method in brief: as §1

blackgrass [23] = assay: Test Example 4: herbicidal effect by soil treatment (Table 19, symbol J); assay type: in vivo, blackgrass (Alopecurus myosuroides); settings: amount of applied herbicide 320 g/ha
Method in brief: as §2

barnyard grass [24] = assay: Test Example 3: herbicidal effect by foliage application, Wagner pot (Table 18, symbol H); assay type: in vivo, barnyard grass (Echinochloa crus-galli); settings: amount of applied herbicide 320 g/ha
Method in brief: as §4

chickweed [25] = assay: Test Example 5: herbicidal effect by foliage application, plastic box (Table 20, symbol P); assay type: in vivo, common chickweed (Stellaria media); settings: foliage application, 320 g/ha, evaluated three weeks after application
Method in brief: as §1

rice flat sedge = assay: Test Example 3: herbicidal effect by foliage application, Wagner pot (Table 18, symbol E); assay type: in vivo, rice flat sedge (Cyperus iria); settings: amount of applied herbicide 320 g/ha
Method in brief: as §4

Row | SMILES | herbicidal effect on R: persian speedwell (criteria 0-5) (persian speedwell [1]) | I: wild oat, herbicidal effect rating (wild oat [2]) | Herbicidal effect on A: late watergrass (grade 0-5) (late watergrass) | R: persian speedwell, herbicidal effect rating (persian speedwell [3]) | herbicidal effect on K: Italian ryegrass (criteria 0-5) (Italian ryegrass [4]) | herbicidal effect on I: wild oat (criteria 0-5) (wild oat [5]) | herbicidal effect on J: blackgrass (criteria 0-5) (blackgrass [6]) | P: chickweed, herbicidal effect rating (chickweed [7]) | herbicidal effect on G: green foxtail (criteria 0-5) (green foxtail [8]) | herbicidal effect on L: windgrass (criteria 0-5) (windgrass [9]) | Herbicidal effect on B: Japanese bulrush (grade 0-5) (Japanese bulrush) | M: velvetleaf, herbicidal effect rating (velvetleaf [10]) | F: southern crabgrass, herbicidal effect rating (southern crabgrass [11]) | herbicidal effect on M: velvetleaf (criteria 0-5) (velvetleaf [12]) | herbicidal effect on N: redroot pigweed (criteria 0-5) (redroot pigweed [13]) | H: barnyard grass, herbicidal effect rating (barnyard grass [14]) | herbicidal effect on D: Chinese sprangletop (Chinese sprangletop) | L: windgrass, herbicidal effect rating (windgrass [15]) | Q: false cleavers, herbicidal effect rating (false cleavers) | G: green foxtail, herbicidal effect rating (green foxtail [16]) | also measured
1 | COCC(=O)Nc1ccc2sc(-c3ccc(F)cc3OC)c(-c3c(O)c(C)nn(C)c3=O)c2c1 [2-179] | 3 (Herbicidal rate of 40% or more and less than 70%) | 0 (Herbicidal rate of 5% or less (almost no effect)) | 3 (Herbicidal rate of 40% or more and less than 70%) | 3 (Herbicidal rate of 40% or more and less than 70%) | 0 (Herbicidal rate of 5% or less (almost no effect)) | 0 (Herbicidal rate of 5% or less (almost no effect)) | 0 (Herbicidal rate of 5% or less (almost no effect)) | 3 (Herbicidal rate of 40% or more and less than 70%) | 0 (Herbicidal rate of 5% or less (almost no effect)) | 0 (Herbicidal rate of 5% or less (almost no effect)) | 0 (Herbicidal rate of 5% or less (almost no effect)) | 0 (Herbicidal rate of 5% or less (almost no effect)) | 0 (Herbicidal rate of 5% or less (almost no effect)) | 1 (Herbicidal rate of 5% or more and less than 20%) | 3 (Herbicidal rate of 40% or more and less than 70%) | 0 (Herbicidal rate of 5% or less (almost no effect)) | 2 (Herbicidal rate of 20% or more and less than 40%) | 0 (Herbicidal rate of 5% or less (almost no effect)) | 0 (Herbicidal rate of 5% or less (almost no effect)) | 0 (Herbicidal rate of 5% or less (almost no effect)) | N: redroot pigweed, herbicidal effect rating (redroot pigweed [17]): 2 (Herbicidal rate of 20% or more and less than 40%); O: lambsquarters, herbicidal effect rating (lambsquarters [18]): 3 (Herbicidal rate of 40% or more and less than 70%); Herbicidal effect on C: oval-leafed pondweed (grade 0-5) (oval-leafed pondweed): 0 (Herbicidal rate of 5% or less (almost no effect)); herbicidal effect on O: lambsquarters (criteria 0-5) (lambsquarters [19]): 2 (Herbicidal rate of 20% or more and less than 40%); herbicidal effect on H: barnyard grass (criteria 0-5) (barnyard grass [20]): 0 (Herbicidal rate of 5% or less (almost no effect)); K: Italian ryegrass, herbicidal effect rating (Italian ryegrass [21]): 0 (Herbicidal rate of 5% or less (almost no effect)); herbicidal effect on F: southern crabgrass (criteria 0-5) (southern crabgrass [22]): 0 (Herbicidal rate of 5% or less (almost no effect)); J: blackgrass, herbicidal effect rating (blackgrass [23]): 0 (Herbicidal rate of 5% or less (almost no effect)); herbicidal effect on H: barnyard grass (barnyard grass [24]): 2 (Herbicidal rate of 20% or more and less than 40%); herbicidal effect on P: chickweed (criteria 0-5) (chickweed [25]): 5 (Herbicidal rate of 90% or more (almost completely withered)); herbicidal effect on E: rice flat sedge (rice flat sedge): 4 (Herbicidal rate of 70% or more and less than 90%)
2 | CCCCOc1cccc(-c2sc3ccc(F)cc3c2-c2c(O)c(C)nn(C)c2=O)c1 [2-219] | 5 (Herbicidal rate of 90% or more (almost completely withered)) | 0 (Herbicidal rate of 5% or less (almost no effect)) | 3 (Herbicidal rate of 40% or more and less than 70%) | 3 (Herbicidal rate of 40% or more and less than 70%) | 0 (Herbicidal rate of 5% or less (almost no effect)) | 0 (Herbicidal rate of 5% or less (almost no effect)) | 0 (Herbicidal rate of 5% or less (almost no effect)) | 0 (Herbicidal rate of 5% or less (almost no effect)) | 5 (Herbicidal rate of 90% or more (almost completely withered)) | 0 (Herbicidal rate of 5% or less (almost no effect)) | 0 (Herbicidal rate of 5% or less (almost no effect)) | 1 (Herbicidal rate of 5% or more and less than 20%) | 4 (Herbicidal rate of 70% or more and less than 90%) | 2 (Herbicidal rate of 20% or more and less than 40%) | 5 (Herbicidal rate of 90% or more (almost completely withered)) | 5 (Herbicidal rate of 90% or more (almost completely withered)) | 3 (Herbicidal rate of 40% or more and less than 70%) | 0 (Herbicidal rate of 5% or less (almost no effect)) | 0 (Herbicidal rate of 5% or less (almost no effect)) | 4 (Herbicidal rate of 70% or more and less than 90%) | N: redroot pigweed, herbicidal effect rating (redroot pigweed [17]): 3 (Herbicidal rate of 40% or more and less than 70%); O: lambsquarters, herbicidal effect rating (lambsquarters [18]): 1 (Herbicidal rate of 5% or more and less than 20%); Herbicidal effect on C: oval-leafed pondweed (grade 0-5) (oval-leafed pondweed): 0 (Herbicidal rate of 5% or less (almost no effect)); herbicidal effect on O: lambsquarters (criteria 0-5) (lambsquarters [19]): 3 (Herbicidal rate of 40% or more and less than 70%); herbicidal effect on H: barnyard grass (criteria 0-5) (barnyard grass [20]): 4 (Herbicidal rate of 70% or more and less than 90%); K: Italian ryegrass, herbicidal effect rating (Italian ryegrass [21]): 0 (Herbicidal rate of 5% or less (almost no effect)); herbicidal effect on F: southern crabgrass (criteria 0-5) (southern crabgrass [22]): 4 (Herbicidal rate of 70% or more and less than 90%); J: blackgrass, herbicidal effect rating (blackgrass [23]): 0 (Herbicidal rate of 5% or less (almost no effect)); herbicidal effect on H: barnyard grass (barnyard grass [24]): 5 (Herbicidal rate of 90% or more (almost completely withered)); herbicidal effect on P: chickweed (criteria 0-5) (chickweed [25]): 5 (Herbicidal rate of 90% or more (almost completely withered)); herbicidal effect on E: rice flat sedge (rice flat sedge): 3 (Herbicidal rate of 40% or more and less than 70%)
